The values below come from patent publication US5196547A, “Meso-azacyclic amides of imidazopyridine carboxylic acids and analogs thereof” (G. D. Searle & Co., priority 1992, dated 1993).

What is called IC50 is the concentration that inhibits the measured activity by half. Low readings indicate inhibition by little substance, high ones a need for much substance. As usually defined, the Ki is a dissociation constant, usually derived from enzyme kinetics or from competition with a known ligand. The low end stands for higher affinity, the high end for lower affinity. A word on the Kd: it is the equilibrium constant for the complex coming apart. Lower therefore signals higher affinity.

For this assay, the target named is T1, 5-HT3 receptor (Rattus norvegicus, UniProt P35563).
T1 construct: Brain cortices are obtained from male rats and a membrane fraction prepared by standard techniques; from tissue; host or cells: male rat brain cortex, membrane fraction
T1 sequence (P35563 24-483): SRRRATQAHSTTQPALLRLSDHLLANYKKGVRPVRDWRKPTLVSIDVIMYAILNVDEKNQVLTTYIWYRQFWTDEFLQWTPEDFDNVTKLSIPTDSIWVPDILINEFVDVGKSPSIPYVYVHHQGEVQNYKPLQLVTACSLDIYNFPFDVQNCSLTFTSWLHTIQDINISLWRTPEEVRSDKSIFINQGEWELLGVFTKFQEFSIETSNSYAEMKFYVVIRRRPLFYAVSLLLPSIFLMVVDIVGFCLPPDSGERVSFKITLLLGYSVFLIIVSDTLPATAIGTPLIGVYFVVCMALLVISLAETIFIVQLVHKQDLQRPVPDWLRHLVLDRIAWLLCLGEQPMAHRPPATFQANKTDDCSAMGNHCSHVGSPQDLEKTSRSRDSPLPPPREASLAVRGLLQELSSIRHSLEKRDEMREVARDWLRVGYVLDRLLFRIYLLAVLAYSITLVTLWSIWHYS
Nature of the assay: Serotonin (5-HT3) radioligand receptor binding assay, [3H]-GR65630. The method, then:
5-HT3 antagonism can be determined by the radioligand receptor binding assay as described herein and in the in vivo Bezold-Jarisch reflex procedure.
GR65630 binds to the 5-HT3 receptor. Brain cortices are obtained from male rats and a membrane fraction prepared by standard techniques. 0.04 mg of membrane prep is incubated with 0.2 nM [^3 H]-GR656630 for 60 minutes at 22° C. […] Membranes are filtered and washed 3 times and the filters are counted to determine [3H]-GR65630 specifically bound.*
*Literature References: Kilpatrick GJ, Jones BJ and Tyers MG. Identification and distribution of 5-HT3 receptors in rat brain using radioligand binding. Nature, 330 : 746-748, 1987.

In the case of `COc1ccc2[nH]cc(C3=CCNCC3)c2c1` [RU24969], the half-inhibitory concentration (IC50) stood at 320 nM and the affinity corresponds to a Ki of 1850 nM.

The molecule `COc1cc(N)c(Cl)cc1C(=O)NC1CN2CCC1CC2` (centres unmarked) [Zacopride] came in with an IC50 of 0.55 nM and an inhibition constant (Ki) of 0.18 nM.

Consider `Cc1nc[nH]c1CCC(=O)c1cn(C)c2ccccc12` [GR65630], for which the equilibrium dissociation constant (Kd) turned out to be 2.46 nM. Further, the “% Specific Binding” value ([3H]-GR65630, non-specific binding in the presence of 1 uM ICS 205-930) was 70%.

Turning to `c1ccc2nc(N3CCNCC3)ccc2c1` [Quipazine], the IC50 is 0.5 nM and the Ki is 0.18 nM.
